Experimental data taken from PubChem BioAssay AID256 (DTP/NCI, 2004).
Values joined by “and” are separate entries in the source; they are usually repeats but may differ in a detail not shown here. Equal values may be shown once. Toxic doses and inconclusive results are not listed. How the source made its calls: active means survival T/C of 150% or more; inactive means T/C below 125% in these data.

Test system: CD2F1 mice, L1210 leukemia ip, survival T/C
Assay: NCI In Vivo Anticancer Drug Screen. Data for tumor model L1210 Leukemia (intraperitoneal) in CD2F1 (CDF1) mice
Conditions: higher = longer survival
Method in brief: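 In this screen, transplantable tumors were grown in mice given either the compound or its vehicle. Results were expressed as the treated measurement relative to the control measurement.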

[1] = endpoint: mean survival time, dose: 37.5 mg/kg/injection, schedule: Q01DX009 (ip), vehicle: saline
[2] = endpoint: mean survival time, dose: 50.0 mg/kg/injection, schedule: Q04DX003 (ip), vehicle: saline with Tween-80
[3] = endpoint: mean survival time, dose: 100.0 mg/kg/injection, schedule: Q04DX002 (ip), vehicle: saline with Tween-80
[4] = endpoint: mean survival time, dose: 200.0 mg/kg/injection, schedule: Q04DX002 (ip), vehicle: saline with Tween-80
[5] = endpoint: mean survival time, dose: 400.0 mg/kg/injection, schedule: Q04DX002 (ip), vehicle: saline with Tween-80
[6] = endpoint: mean survival time, dose: 50.0 mg/kg/injection, schedule: Q01DX009 (ip), vehicle: saline
[7] = endpoint: mean survival time, dose: 100.0 mg/kg/injection, schedule: Q01DX009 (ip), vehicle: saline
[8] = endpoint: mean survival time, dose: 200.0 mg/kg/injection, schedule: Q01DX009 (ip), vehicle: saline
[9] = endpoint: mean survival time, dose: 100.0 mg/kg/injection, schedule: Q04DX003 (ip), vehicle: saline with Tween-80
[10] = endpoint: mean survival time, dose: 200.0 mg/kg/injection, schedule: Q04DX003 (ip), vehicle: saline with Tween-80
[11] = endpoint: mean survival time, dose: 400.0 mg/kg/injection, schedule: Q04DX003 (ip), vehicle: saline with Tween-80
[12] = endpoint: mean survival time, dose: 100.0 mg/kg/injection, schedule: Q01DX009 (ip), vehicle: saline with Tween-80

Measured: T/C

CC1(C)OC2C(CN=[N+]=[N-])OC(n3cnc4c(=O)[nH]c(N)nc43)C2O1 (stereo unspecified)
inactive: endpoint: mean survival time, dose: 100.0 mg/kg/injection, schedule: Q01DX001 (ip), vehicle: Klucel (hydroxypropylcellulose) (HPC) 109 % of control | endpoint: mean survival time, dose: 200.0 mg/kg/injection, schedule: Q01DX001 (ip), vehicle: Klucel (hydroxypropylcellulose) (HPC) 97 % of control | endpoint: mean survival time, dose: 400.0 mg/kg/injection, schedule: Q01DX001 (ip), vehicle: Klucel (hydroxypropylcellulose) (HPC) 97 % of control

COC(C(=O)C(O)C(C)O)C1Cc2cc3cc(OC4CC(OC5CC(O)C(O)C(C)O5)C(O)C(C)O4)c(C)c(O)c3c(O)c2C(=O)C1OC1CC(OC2CC(O)C(OC3CC(C)(O)C(O)C(C)O3)C(C)O2)C(O)C(C)O1 (stereo unspecified)
inactive: endpoint: mean survival time, dose: 0.13 mg/kg/injection, schedule: Q01DX009 (ip), vehicle: saline 101 % of control | endpoint: mean survival time, dose: 0.25 mg/kg/injection, schedule: Q01DX009 (ip), vehicle: saline 97 % of control | endpoint: mean survival time, dose: 0.5 mg/kg/injection, schedule: Q01DX009 (ip), vehicle: saline 101 % of control | endpoint: mean survival time, dose: 1.0 mg/kg/injection, schedule: Q01DX009 (ip), vehicle: saline 95 % of control

COc1ccc(Cl)cc1C/C=N/N(C)C
inactive: endpoint: mean survival time, dose: 75.0 mg/kg/injection, schedule: Q01DX001 (ip), vehicle: saline 103 % of control | endpoint: mean survival time, dose: 150.0 mg/kg/injection, schedule: Q01DX001 (ip), vehicle: saline 105 % of control

CN=NNc1ccc(C(N)=O)cc1
inactive: endpoint: mean survival time, dose: 18.75 mg/kg/injection, schedule: Q01DX009 (ip), vehicle: saline 100 % of control | [1] 109 % of control | endpoint: mean survival time, dose: 75.0 mg/kg/injection, schedule: Q01DX009 (ip), vehicle: saline 101 % of control | endpoint: mean survival time, dose: 150.0 mg/kg/injection, schedule: Q01DX009 (ip), vehicle: saline 96 % of control | endpoint: mean survival time, dose: 300.0 mg/kg/injection, schedule: Q01DX009 (ip), vehicle: saline 100 % of control

O=C(NC/C=C/Br)Nc1cnc2ccccc2c1
inactive: endpoint: mean survival time, dose: 25.0 mg/kg/injection, schedule: Q04DX003 (ip), vehicle: saline with Tween-80 102 % of control | [2] 93 % of control

COc1cc(CCN2CC3C(C(=O)O)C4C=CC3(C2)O4)ccc1OCc1ccccc1 (stereo unspecified)
inactive: [3] 95 % of control | [4] 95 % of control | [5] 98 % of control

Cc1ccc(N/N=C/C(=O)O)cc1
inactive: endpoint: mean survival time, dose: 12.5 mg/kg/injection, schedule: Q04DX003 (ip), vehicle: other 101 % of control | endpoint: mean survival time, dose: 25.0 mg/kg/injection, schedule: Q04DX003 (ip), vehicle: other 101 % of control | endpoint: mean survival time, dose: 50.0 mg/kg/injection, schedule: Q04DX003 (ip), vehicle: other 97 % of control | endpoint: mean survival time, dose: 100.0 mg/kg/injection, schedule: Q04DX003 (ip), vehicle: other 95 % of control | endpoint: mean survival time, dose: 400.0 mg/kg/injection, schedule: Q04DX003 (ip), vehicle: other 94 % of control

NC1CCC(C(=O)O)CC1 (stereo unspecified)
inactive: endpoint: mean survival time, dose: 25.0 mg/kg/injection, schedule: Q01DX009 (ip), vehicle: saline 105 % of control | [6] 97 % of control and 105 % of control | [7] 94 % of control and 102 % of control | [8] 102 % of control

Cc1nc(C(Cl)C2OC(CO)C(O)C2O)cc(=O)[nH]1 (stereo unspecified)
inactive: endpoint: median survival time, dose: 18.25 mg/kg/injection, schedule: Q01DX005 (ip), vehicle: saline 118 % of control | endpoint: median survival time, dose: 36.5 mg/kg/injection, schedule: Q01DX005 (ip), vehicle: saline 100 % of control | endpoint: median survival time, dose: 73.0 mg/kg/injection, schedule: Q01DX005 (ip), vehicle: saline 102 % of control | endpoint: median survival time, dose: 146.0 mg/kg/injection, schedule: Q01DX005 (ip), vehicle: saline 100 % of control

Cc1ccc(NC(=O)C(Cl)(Cl)Cl)cc1[N+](=O)[O-]
inactive: [9] 102 % of control | [10] 96 % of control | [11] 98 % of control

OCCOc1ccc2ccccc2c1-c1c(OCCOc2ccc3ccccc3c2-c2c(OCCO)ccc3ccccc23)ccc2ccccc12
inactive: endpoint: mean survival time, dose: 25.0 mg/kg/injection, schedule: Q01DX001 (ip), vehicle: saline with Tween-80 95 % of control | endpoint: mean survival time, dose: 50.0 mg/kg/injection, schedule: Q01DX001 (ip), vehicle: saline with Tween-80 91 % of control | endpoint: mean survival time, dose: 100.0 mg/kg/injection, schedule: Q01DX001 (ip), vehicle: saline with Tween-80 86 % of control | endpoint: mean survival time, dose: 400.0 mg/kg/injection, schedule: Q01DX001 (ip), vehicle: saline with Tween-80 86 % of control

CNC(=O)NC1C(O)C(OC)OC2COC(c3ccccc3)OC21 (stereo unspecified)
inactive: [9] 97 % of control | [10] 97 % of control | [11] 95 % of control

C=CCC(C)C(C)C (stereo unspecified)
inactive: [6] 96 % of control | [7] 100 % of control | [8] 100 % of control

[Br][OsH].[C-]#[O+].c1ccc([PH+](c2ccccc2)c2ccccc2)cc1.c1ccc([PH+](c2ccccc2)c2ccccc2)cc1.c1ccc([PH+](c2ccccc2)c2ccccc2)cc1
inactive: [3] 91 % of control | [4] 87 % of control | [5] 87 % of control

CC1=CCC(c2ccccc2)NC(=O)C1 (stereo unspecified)
inactive: [3] 96 % of control | [4] 104 % of control | [5] 104 % of control

CC(C)OC(=S)S.[Pt]
inactive: endpoint: mean survival time, dose: 11.3 mg/kg/injection, schedule: Q04DX003 (ip), vehicle: saline with Tween-80 89 % of control | endpoint: mean survival time, dose: 22.5 mg/kg/injection, schedule: Q04DX003 (ip), vehicle: saline with Tween-80 97 % of control | endpoint: mean survival time, dose: 45.0 mg/kg/injection, schedule: Q04DX003 (ip), vehicle: saline with Tween-80 101 % of control | endpoint: mean survival time, dose: 90.0 mg/kg/injection, schedule: Q04DX003 (ip), vehicle: saline with Tween-80 97 % of control | endpoint: mean survival time, dose: 180.0 mg/kg/injection, schedule: Q04DX003 (ip), vehicle: saline with Tween-80 95 % of control

Cc1ccc(C)c(Br)c1C
inactive: endpoint: mean survival time, dose: 100.0 mg/kg/injection, schedule: Q01DX005 (ip), vehicle: saline with Tween-80 97 % of control | endpoint: mean survival time, dose: 200.0 mg/kg/injection, schedule: Q01DX005 (ip), vehicle: saline with Tween-80 101 % of control | endpoint: mean survival time, dose: 400.0 mg/kg/injection, schedule: Q01DX005 (ip), vehicle: saline with Tween-80 97 % of control

Nc1ccc(S(=O)(=O)c2ccc(Nc3ccccc3)c(N)c2)cc1
inactive: [3] 97 % of control | [4] 94 % of control | [5] 97 % of control

Brc1cccc(-n2ccnc2)c1
inactive: [9] 102 % of control | [10] 112 % of control

CCN=C(N)SCCS(=O)(=O)O
inactive: endpoint: mean survival time, dose: 100.0 mg/kg/injection, schedule: Q01DX005 (ip), vehicle: saline 103 % of control | [7] 97 % of control | endpoint: mean survival time, dose: 200.0 mg/kg/injection, schedule: Q01DX005 (ip), vehicle: saline 106 % of control | [8] 97 % of control | endpoint: mean survival time, dose: 400.0 mg/kg/injection, schedule: Q01DX005 (ip), vehicle: saline 95 % of control | endpoint: mean survival time, dose: 400.0 mg/kg/injection, schedule: Q01DX009 (ip), vehicle: saline 97 % of control

CCCCCCC(/C=N\N=C\c1ccco1)=C\c1ccccc1
inactive: [12] 92 % of control | [9] 90 % of control | endpoint: mean survival time, dose: 200.0 mg/kg/injection, schedule: Q01DX009 (ip), vehicle: saline with Tween-80 92 % of control | [10] 100 % of control | endpoint: mean survival time, dose: 400.0 mg/kg/injection, schedule: Q01DX009 (ip), vehicle: saline with Tween-80 100 % of control | [11] 90 % of control

CCOC(=O)S(=O)(=O)c1ccc(C)cc1
inactive: endpoint: mean survival time, dose: 100.0 mg/kg/injection, schedule: Q01DX009 (ip), vehicle: acetone 101 % of control | endpoint: mean survival time, dose: 200.0 mg/kg/injection, schedule: Q01DX009 (ip), vehicle: acetone 109 % of control | endpoint: mean survival time, dose: 400.0 mg/kg/injection, schedule: Q01DX009 (ip), vehicle: acetone 114 % of control

CC(=O)ON1C(=O)c2cccc3cccc(c23)C1=O
inactive: endpoint: mean survival time, dose: 50.0 mg/kg/injection, schedule: Q01DX009 (ip), vehicle: saline with Tween-80 96 % of control | [12] 102 % of control

COC(=O)C12CCc3ccoc3C1CCC1(C)C(C)=CCCC12 (stereo unspecified)
inactive: endpoint: mean survival time, dose: 50.0 mg/kg/injection, schedule: Q04DX002 (ip), vehicle: other 115 % of control | endpoint: mean survival time, dose: 100.0 mg/kg/injection, schedule: Q04DX002 (ip), vehicle: other 107 % of control | endpoint: mean survival time, dose: 200.0 mg/kg/injection, schedule: Q04DX002 (ip), vehicle: other 107 % of control

NC(N)=N/N=C/c1cc(Br)ccc1O
inactive: [1] 105 % of control | endpoint: mean survival time, dose: 37.5 mg/kg/injection, schedule: Q04DX003 (ip), vehicle: saline 110 % of control | endpoint: mean survival time, dose: 75.0 mg/kg/injection, schedule: Q04DX003 (ip), vehicle: saline 114 % of control | endpoint: mean survival time, dose: 150.0 mg/kg/injection, schedule: Q04DX003 (ip), vehicle: saline 108 % of control

CCOc1ccc(/C=C(/C#N)C(N)=O)cc1
inactive: [2] 97 % of control | [9] 94 % of control | [10] 92 % of control
